# According to patent US20020086835A1, “Use of adenosine deaminase inhibitors to treat systemic inflammatory response syndrome” (priority 2000, published 2002):
# Legend:
# [1] = human blood; cited from earlier work
# [2] = system: TNF-α; experiment: Serum TNF-α by ELISA in rats with chronic peritoneal sepsis (200 mg/kg cecal slurry ip); assay type: in vivo, rat; conditions: septic rats, versus saline-treated septic group
# Description: Studies were conducted to determine if manipulation of adenosine-mediated events would result in alterations in the TNF-α response in this model. At the time of sepsis induction, rats were treated in one of four ways. One group received only 0.9% normal saline as a vehicle control (No Rx; n=6). […] The third group received the adenosine deaminase inhibitor, erythro-9-(2-hydroxy-3-nonyl)adenine (EHNA; 1 μmole/kg+1 μmole/kg/hr; iv; n=3). A fourth group received the adenosine receptor antagonist 8-sulfophenyltheophylline (SPT; 400 μg/kg/8 hours; n=5).
# Sepsis was induced under pentobarbital anesthesia (50 mg/kg) in each rat by intraperitoneal (ip) injection of 200 mg/kg rat cecal contents mixed as a slurry in 5% dextrose in water (D5W). […] Non-septic controls received an equivalent volume ip injection of D5W. Polyethylene catheters (Intramedic PE-50, Baxter) were inserted into the right internal jugular vein and right carotid artery. The jugular catheter was used for venous access (drug infusions; volume replacement, etc). The carotid catheter was used to obtain arterial blood samples, and to monitor arterial blood pressure and heart rate. The catheters were secured in their respective vessels, tunneled subcutaneously to exit in the interscapular region, and filled with heparinized saline (50 units/ml 0.9% normal saline). Incisions were closed in layers using 3-0 silk. Rats were allowed to recover from anesthetic and provided food and water ad libitum,
# Serum and tissue tumor necrosis factor-α (TNF-α) concentrations were determined by enzyme-linked immunosorbant assay. Samples of serum, liver, and spleen were collected, rapidly weighed, and frozen in liquid nitrogen. On the day of assay, tissues are added to labeled tubes containing lysis buffer (volume=10 ml/gram wt. with 1:10 dilution) and kept on ice. The lysis buffer is 20 mM Tris (pH 7.4) containing […] phenylmethylsulfonylflouride (PMSF), […] leupeptin, 0.7 g/ml pepstatin, and 2.0 g/ml aprotinin to inhibit proteases. Samples were immediately homogenized using five 3 see bursts, washing grinding pistol (3×) between samples with phosphate buffered saline. Samples are then centrifuged for 20 min at 2200 RPM, 4° C. The supernatant was removed and used for TNF-α measurements. Briefly, each microplate well contained 50 μl of assay diluent. To each well, 50 μl of standard, control, or serum/homogenate supernatant sample were added and mixed on an orbital plate shaker. Plates were incubated at room temperature for 2 hours. Each well was then aspirated and washed with wash buffer 4 times. After final aspiration of wash buffer, 100 μl of rat TNF-α conjugate was added to each well. Wells were then covered and incubated for 2 hours at room temperature. At the end of the incubation, the aspiration/wash procedure was repeated 4 times, after which 100 μl of stabilized chromogen solution was added to each well. Next, plates were incubated for 45 minutes at room temperature in a dark area. After this final incubation period, 100 μl stopping solution was added to each well. Optical density of each well at […] was determined within 30 minutes using a Biotek Instruments EL312e microtiter plate reader. Concentrations of TNF-α were calculated from the standard curves.
# At the time of sepsis induction, rats were treated in one of three ways. One group received only 0.9% normal saline as a vehicle control (VEH, n=6, where n is the number of rats). […] A third group received the adenosine receptor antagonist, 8-sulfophenyltheo-phylline (SPT; 400 μg/kg/8 h; n=5). Serum TNF-α (pg/ml) was determined at 4 and 24 hours after sepsis induction by ELISA.
# Male SD rats (350-400 g) were made septic by IP introduction of a 200 mg/kg cecal slurry. […] TNF-α (pg/ml) was determined at 4 and 24 hours after sepsis induction by ELISA.
# [3] = biological target: T1, adenosine deaminase (Homo sapiens, UniProt P00813); conditions: potency of inhibition of the enzyme
# T1 sequence (P00813 1-363): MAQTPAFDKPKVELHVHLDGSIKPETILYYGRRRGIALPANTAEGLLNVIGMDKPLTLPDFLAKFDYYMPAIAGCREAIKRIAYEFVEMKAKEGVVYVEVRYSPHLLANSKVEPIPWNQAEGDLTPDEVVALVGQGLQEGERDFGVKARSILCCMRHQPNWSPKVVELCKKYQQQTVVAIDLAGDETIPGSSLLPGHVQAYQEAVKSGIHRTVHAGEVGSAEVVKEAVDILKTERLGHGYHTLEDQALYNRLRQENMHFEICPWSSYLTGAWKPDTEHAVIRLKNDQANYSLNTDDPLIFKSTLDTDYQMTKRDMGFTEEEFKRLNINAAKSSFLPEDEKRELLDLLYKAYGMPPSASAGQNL
# [4] = biological target: T1, adenosine deaminase; conditions: read-out: Inhibitory constant for adenosine deaminase; cited from earlier work
# [5] = system: adenosine deaminase; conditions: in perfusion medium, in the presence of 5′-amino-5′-deoxyadenosine; cited from earlier work
SMILES,Half life [1] [s],Effect on serum TNF-α response to sepsis at 4 hours ([2]; 4 hours),Effect on serum TNF-α response to sepsis at 24 hours ([2]; 24 hours),Activity relative to pentostatin (times less active) [3],Ki [4] [nM],Increase of adenosine release [5] [fold]
Nc1ncnc2c1ncn2[C@@H]1O[C@H](CO)[C@@H](O)[C@H]1O [Adenosine],< 1,,,,,
"CCCCCCC(C(C)O)n1cnc2c(N)ncnc21 (stereo not drawn) [EHNA, erythro-9-(2-hydroxy-3-nonyl)adenine]",,attenuation of this response,attenuation of this response,one thousand,1,15
